Legend:
2D12.5 = test: Relative binding curves of 2D12.5 for Y-DOTA isomers, Y-DTPA and sidechain variants (FIG. 16, 17); design: species or system mouse; conditions: for relative binding affinity for 2D12.5 (in words): coordinated metal Y^3+
Excerpt: FIG. 16 is a graphical display showing the relative binding curves of 2D12.5 for Y-DOTA isomers and Y-DTPA. 2D12.5 binds both the (R)- and (S)-isomer of 2-(4-nitrobenzyl)-DOTA when the coordinated metal is Y^3+ (the same behavior is expected for the other rare earths). The (S)-isomer confers Λ-helicity, while the (R)-isomer confers Δ-helicity to the acetate arms. […] Y-DOTA (no-sidearm) exists in solution as a racemic mixture of the coordination isomers.
FIG. 17 is a graphical display showing relative binding curves of Y-DOTA molecules with different sidechain locations. […] Evaluation of the crystal structure seems to indicate that shorter substitutions at the position may bind with higher affinity. Substitutions at other locations may yield reasonably high affinities as well. The (5-Amino-2-methoxy-phenyl)-carboxymethyl)-DOTA analyzed in this experiment was racemic, so it is not clear which isomer binds with higher affinity. The low pKa of the carboxymethyl proton makes it difficult to prepare a chirally pure molecule.

antibody 2D12.5 = test: Competitive immunoassay (ELISA) of metal-DOTA complexes relative to Y-DOTA; assay type: binding, mouse; conditions: 37° C.; for relative binding affinity compared with Y-DOTA (in words): 15 ions tested
Excerpt: FIG. 13 is graphical display showing the relative binding of metal-DOTA complexes to antibody 2D12.5. A representative set of competitive binding curves obtained from ELISA experiments described in Example 3 below. Error bars (representing the standard error of the mean) are shown, but are generally smaller than the data points.
To determine the metal selectivity of the antibody 2D12.5, a competitive immunoassay was used to measure the binding constants of multiple metal-DOTA complexes relative to Y^3+-DOTA.
We examined the monoclonal antibody 2D12.5, initially developed to bind specifically to Y-DOTA for targeted radiotherapy (see, e.g., Goodwin et al., Cancer Res. 54: 5937-5946 (1994)), in order to determine the scope of its activity. To assess the metal selectivity of antibody 2D12.5, a competitive immunoassay to measure the binding constants of various metal-DOTA complexes relative to the original Y^3+ complex was developed (FIG. 12). Briefly, 2D12.5 was incubated at 37° C. in the presence of immobilized Y-DOTA and a soluble metal-DOTA competitor. The metal-DOTA concentration was varied from μM to pM in order to determine the relative binding affinity of 2D12.5 for each metal chelate in comparison to Y-DOTA. Binding was measured by standard methods known to those of skill in the art. The DOTA analog used to evaluate binding was [S]-2-(p-nitrobenzyl)-DOTA, which is similar to the original antigen.

N85D_G54C 2D12.5 mutant = test: Permanent binding of metal-AABD and metal-NBD complexes to 2D12.5 Fab mutant N85D_G54C (Western blot)
Method: Metallation of Chelates with stable metal cations. Metals tested in this experiment included Y, La, Lu, Sr and Sc. Stock chelate concentrations were measured using a Co-57 metal binding assay (Meares et al., Anal. Biochem. 142:68-78, 1984). Stock metal solutions (approximately 0.2 M) were prepared by dissolving the appropriate gravimetrically measured rare earth chloride salt in 0.05 M HCl. As an example, YCl3 (2.5 equivalents) was added to 25 μL of NBD ([…]) dissolved in 0.1 M tetramethylammonium acetate, and the pH was adjusted to 5 by the addition of triethylamine. The metallation was allowed to proceed overnight at 50° C. Samples were promptly frozen at −70° C., and metallation efficiency was assessed using a competitive metal-binding assay with Co-57.^3 Excess metal was scavenged with DTPA, which has very low affinity for the antibody (<<1%).
Metal-AABD and metal-NBD complexes were incubated with 2D12.5 Fab mutant N85D_G54C and samples denatured, reduced and separated by SDS-PAGE, as described for Y-90 in the previous examples. […]

For `O=C(O)CN1CCN(CC(=O)O)CCN(CC(=O)O)[C@H](Cc2ccc([N+](=O)[O-])cc2)CN(CC(=O)O)CC1` [(R)-isomer of 2-(4-nitrobenzyl)-DOTA, 2-(4-nitrobenzyl)-DOTA], the “relative binding affinity for 2D12.5 (in words)” value (2D12.5) was “decreases less than an order of magnitude”.

In the case of `O=C(O)CN(CCN(CC(=O)O)CC(=O)O)CCN(CC(=O)O)CC(=O)O` [DTPA], the “affinity for the antibody” value (2D12.5; DTPA used to scavenge excess metal) is reported as < 1%.

For `O=C([O-])CN1CCN(CC(=O)[O-])CCN(CC(=O)[O-])CCN(CC(=O)[O-])CC1.[Eu+3]` [Eu^3+], the “relative binding affinity compared with Y-DOTA (in words)” value (antibody 2D12.5) was “strongest binders”.

`O=C([O-])CN1CCN(CC(=O)[O-])CCN(CC(=O)[O-])CCN(CC(=O)[O-])CC1.[Gd+3]` [Gd-DOTA] was tested, and the “relative binding affinity compared with Y-DOTA (in words)” value (antibody 2D12.5) was “bind more tightly than the original Y^3+ complex” and the “relative binding affinity compared with Y-DOTA (in words)” value (antibody 2D12.5; listed as Gd^3+) was “strongest binders”.

`O=C(O)CN1CCN(CC(=O)O)CCN(CC(=O)O)C(Cc2ccc([N+](=O)[O-])cc2)CN(CC(=O)O)CC1` (stereo not shown) [NBD, [S]-2-(p-nitrobenzyl)-DOTA] was tested, and the “permanent bond formation with N85D_G54C 2D12.5 mutant” value (N85D_G54C 2D12.5 mutant; Western blot, hybridoma-derived 2D12.5 as 1° stain) was “negative”.

In the case of `O=C([O-])CN1CCN(CC(=O)[O-])CCN(CC(=O)[O-])CCN(CC(=O)[O-])CC1.[Tb+3]` [Tb-DOTA], the “relative binding affinity compared with Y-DOTA (in words)” value (antibody 2D12.5) is reported as “strongest binders”.

In the case of `O=C([O-])CN1CCN(CC(=O)[O-])CCN(CC(=O)[O-])CCN(CC(=O)[O-])CC1.[Y+3]` [Y-DOTA], the Kd (antibody 2D12.5; DOTA analog used was [S]-2-(p-nitrobenzyl)-DOTA) is reported as 10 nM and the “relative binding affinity for 2D12.5 (in words)” value (2D12.5) is reported as “between that observed for the (S)- and (R)-isomers”.

For `O=C(O)CN1CCN(CC(=O)O)CCN(CC(=O)O)[C@@H](Cc2ccc([N+](=O)[O-])cc2)CN(CC(=O)O)CC1` [Y-NBD, (S)-2-(4-nitrobenzyl)-DOTA], the “relative binding affinity for 2D12.5 (in words)” value (2D12.5) was “clearly stronger”, the “relative binding affinity for 2D12.5 (in words)” value (2D12.5; listed as (S)-isomer of 2-(4-nitrobenzyl)-DOTA) was “preferred isomer for binding” and the “binding strength of NBD complexes among the rare earths” value (N85D_G54C 2D12.5 mutant; Western blots) was “one of the strongest binders”.

“(5-Amino-2-methoxyphenyl)-carboxymethyl)-DOTA” was tested, and the “relative binding affinity for 2D12.5 (in words)” value (2D12.5) was “still sufficiently strong”.

— US20090093618A1, “STREPTAVIDIN-BIOTIN-LINK ANTIBODY-HAPTEN SYSTEM” (The Regents OF THE UNIVERSITY OF CALIFORNA, priority 2006, published 2009)
